According to patent publication US6372800B1, “Benzene compound and pharmaceutical use thereof” (Mitsubishi Pharma Corporation, priority 1994, dated 2002):
Several values for one entry are separate records, joined by “and”; a condition that tells them apart may be missing. Equal values may be shown once.

How the values were obtained:
[1] = tested on: host versus graft reaction in rats; experiment: Inhibitory effect on host versus graft (HvG) reaction in rats (popliteal lymph node weight); format: in vivo, rat; settings: administered daily for 4 days after the injection with cells intravenously or orally, difference of right and left popliteal lymph node weights
Method: (§1) The spleen is removed from male WKAH rats at ages of 4 to 5 weeks old and is used to obtain a single cell suspension of spleen cells using RPMI 1640 medium (containing kanamycin sulfate at […], penicillin G potassium at 100 unit/ml, N-2-hydroxyethylpiperazine-N-2-ethane sulfate at 10 mM, 0.1% sodium bicarbonate, and L-glutamine at 2 mM). After the treatment of lysing of red blood cells, the cells are washed at three times and are adjusted at 5×10^7 cells/ml with physiological saline. By injection into right hind foot pad of 100 ul of spleen cell suspension, the host versus graft reaction (HvG reaction) are induced. After 4 days of the injection with cells, both of right and left popliteal lymph nodes are removed and the weight of them are measured. The test compounds are examined by difference of the lymph node weights between right and left as a indicator of HvG reaction. In addition, after 4 days of the injection with cells, blood is obtained from tail vein of the rats and the number of peripheral white blood cells are measured using automatic hemocytometer for animal (MEK-5158, Nihonkouden Co. Ltd.). Test compounds are administered daily for 4 days after the injection with cells intravenously or orally.
(§2) The value in the table represents minimum effective dose (mg/kg).

[2] = tested on: peripheral white blood cells; experiment: Reduction of peripheral white blood cells in rats of the HvG reaction test; format: in vivo, rat; settings: for Reduction of peripheral white blood cells, minimum effective dose: administered daily for 4 days intravenously or orally, blood from tail vein 4 days after the injection with cells; for reduction of peripheral white blood cell number relative to immunosuppressive dose (assessment in words): conclusion drawn from Table 1 (HvG test)
Method: as §1, §2

melting point	Reduction of peripheral white blood cells, minimum effective dose [2] [mg/kg]	Structure (SMILES)	Inhibitory effect on HvG reaction, minimum effective dose [1] [mg/kg]	reduction of peripheral white blood cell number relative to immunosuppressive dose (assessment in words) [2]
150 to 151 °C	–	CCCCCCCOc1ccc(CCC(C)(CO)NC(=O)c2cc([N+](=O)[O-])cc([N+](=O)[O-])c2)cc1 (racemic)	–	–
114 to 115 °C and 115 to 116 °C	–	CCCCCCCOc1ccc(CCC(CO)(CCC)NC(=O)c2cc([N+](=O)[O-])cc([N+](=O)[O-])c2)cc1 (racemic) [Working Example 29]	–	–
–	0.03	CCCCCCCOc1ccc(CCC(C)(N)CO)cc1.Cl (stereo not drawn) [Compound of experiment 1, 2-Amino-4-(4-heptyloxyphenyl)-2-methylbutanol Hydrochloride]	0.03	weakness of reduction of peripheral white blood cell number
71 to 73 °C	0.03	CCCCCCCCCc1ccc(CCCC(N)(CO)CCO)cc1 (stereo not drawn) [Compound of experiment 3, 2-Amino-2-[3-(4-nonylphenyl)propyl]butane-1,4-diol]	0.03	weakness of reduction of peripheral white blood cell number
108 to 110 °C	0.03	CCCCCCCOc1ccc(CCC(N)(CC)CO)cc1.Cl (stereo not drawn) [Compound of experiment 27, 2-Amino-2-ethyl-4-(4-heptyloxyphenyl)butanol Hydrochloride]	0.03	weakness of reduction of peripheral white blood cell number
–	3	CCCCCCCOc1ccc(CC[C@@](N)(CO)CCC)cc1.Cl [Compound of experiment 31, (R)-2-amino-2-[2-(4-heptyloxyphenyl)ethyl]pentanol Hydrochloride]	<0.3	weakness of reduction of peripheral white blood cell number
–	3	CCCCCCCOc1ccc(CCC(N)(CO)C(C)C)cc1.CCCCCCCOc1ccc(CCC(N)(CO)C(C)C)cc1.Cl.Cl.O (stereo not drawn) [Compound of experiment 60, 2-Amino-2-isopropyl-4-(4-heptyloxyphenyl)butanol Hydrochloride 1/2 Hydrate]	1	weakness of reduction of peripheral white blood cell number
–	3	CCCCCCCOc1ccc(CCC(C)(N)CO)cc1OC (stereo not drawn) [Compound of experiment 66, 2-Amino-4-(4-heptyloxy-3-methoxyphenyl)-2-methylbutanol 1/10 Hydrate]	3	weakness of reduction of peripheral white blood cell number
–	0.03	CCCCCCCCc1ccc(CCC(N)(CO)CO)cc1.Cl [FTY720, 2-amino-2-[2-(4-octylphenyl)ethyl]propane-1,3-diol hydrochloride, reference compound]	0.1	–
68 to 71 °C	–	CCCCCCCc1ccc(CCCC(N)(CO)CCO)cc1 (stereo not drawn) [Working Example 4, 2-Amino-2-[3-(4-heptylphenyl)propyl]butane-1,4-diol]	–	–
90 to 91 °C	–	CCCCCCCOc1ccc(CCC(CO)(CCC)NC(=O)c2cc([N+](=O)[O-])cc([N+](=O)[O-])c2)cc1 (stereo not drawn) [Working Example 32]	–	–
78 to 79 °C	–	CCCCCCCOc1ccc(CCC(CO)(CCO)NC(=O)c2cc([N+](=O)[O-])cc([N+](=O)[O-])c2)cc1 (stereo not drawn) [Working Example 115]	–	–
77 to 79 °C	–	CCCCCCCOc1ccc(CCC(CO)(CCO)NC(=O)c2cc([N+](=O)[O-])cc([N+](=O)[O-])c2)cc1 (stereo not drawn) [Working Example 116]	–	–

Structure (SMILES)	melting point	Reduction of peripheral white blood cells, minimum effective dose [2] [mg/kg]	Inhibitory effect on HvG reaction, minimum effective dose [1] [mg/kg]	reduction of peripheral white blood cell number relative to immunosuppressive dose (assessment in words) [2]
CCCCCCCCCCCCc1ccc(CCC(CCOC(C)=O)(COC(C)=O)NC(C)=O)cc1 (stereo not drawn) [Working Example 16, 3-Acetamido-3-acetoxymethyl-5-(4-dodecylphenyl)pentyl Acetate]	75 to 77 °C	–	–	–
CCCCCCCC(=O)c1ccc(CCC(CCOC(C)=O)(CCOC(C)=O)NC(C)=O)cc1 [Working Example 100, 3-Acetamido-5-acetoxy-3-[2-(4-octanoylphenyl)ethyl]pentyl Acetate]	83 to 86 °C	–	–	–
